From ChEMBL document CHEMBL1201862, “PubChem BioAssay data set” (2004)
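Dose response: 5 concentrations. Exposure: 48 h. Format: 96-well plates. Endpoint: linear interpolation; highest concentration if not reached. GI50 marks 50% less growth.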 The source made the active and inactive calls. Rule as the data show it: active = GI50 up to about 1.1 µM and inactive = higher.

Columns and labels:
Assay in all cases: NCI-60 cell line screen, 48 h
[1] = test system: OVCAR-4
[2] = test system: SF-295
[3] = test system: SR
[4] = test system: COLO 205
[5] = test system: RPMI-8226
[6] = test system: MCF7
[7] = test system: K562
[8] = test system: SK-MEL-28
[9] = test system: A549
[10] = test system: SF-268
[11] = test system: ACHN
[12] = test system: HL-60
[13] = test system: UACC-62
[14] = test system: HCC 2998
[15] = test system: RXF 393
[16] = test system: OVCAR-5
[17] = test system: NCI-H23
[18] = test system: MDA-MB-231
[19] = test system: CAKI-1
[20] = test system: SK-MEL-2

Measured: GI50

O=C(CCC(=O)CC(O)(C(F)(F)F)C(F)(F)F)CC(O)(C(F)(F)F)C(F)(F)F
inactive: [1] 33 µM | [2] 32.1 µM | [3] 47.9 µM | [4] 29.2 µM | [5] 26.7 µM | [6] 37.8 µM | [7] 33.4 µM | [8] > 100 µM | [9] 46.8 µM | [10] 71.6 µM | [11] 33.7 µM | [12] 33.7 µM | [13] 31.7 µM | [14] 58.1 µM | [15] > 100 µM | [16] > 100 µM | [17] 30.8 µM | [18] 29.4 µM

CCc1ccc2c(c1)/C(=C1/Nc3ccccc3/C1=N/O)C(=O)N2
inactive: [19] 2.24 µM | [1] 6.67 µM | [2] 6.25 µM | [3] 3.29 µM | [4] 8.83 µM | [5] 5.15 µM | [6] 1.66 µM | [7] 4.5 µM | [8] 12.9 µM | [9] 6.37 µM | [10] 8.22 µM | [11] 3.84 µM | [13] 11 µM | [14] 3.3 µM | [15] 2.81 µM | [20] 4.38 µM | [16] 18.6 µM | [17] 5.18 µM | [18] 20 µM

CCOC(=O)C1C(c2ccccc2)C2(C#N)C(=N)OC1(C)C2(C#N)C#N (configuration not stated)
inactive: [19] 6.61 µM | [2] 36.2 µM | [4] 16.4 µM | [5] 20 µM | [6] 46.8 µM | [7] 19.8 µM | [9] > 100 µM | [10] 22.4 µM | [11] 20.9 µM | [12] 20.7 µM | [13] 27 µM | [14] 13.8 µM | [15] 15.8 µM | [20] 20.7 µM | [16] 21.7 µM | [17] 17.5 µM | [18] 10.9 µM

COC(=O)C1CCC(=O)N1C(c1cc(OC)c(OC)c(OC)c1)c1cc(OC)c(OC)c(OC)c1 (configuration not stated)
inactive: [2] > 100 µM | [3] > 100 µM | [5] > 100 µM | [6] > 100 µM | [7] > 100 µM | [8] > 100 µM | [9] > 100 µM | [10] > 100 µM | [11] > 100 µM | [12] > 100 µM | [13] > 100 µM | [20] > 100 µM | [16] > 100 µM | [18] > 100 µM

CN(C)c1ccc(/C=N/c2ccc(-c3nc4ccccc4[nH]3)cc2)cc1
inactive: [19] > 100 µM | [1] 35.9 µM | [2] 46.6 µM | [3] 12.9 µM | [4] 60.8 µM | [5] 36.1 µM | [6] 46.9 µM | [7] 35 µM | [8] > 100 µM | [9] > 100 µM | [10] 60 µM | [11] 59.3 µM | [12] 24.7 µM | [15] 24.2 µM | [20] > 100 µM | [16] > 100 µM | [17] > 100 µM | [18] 32.8 µM

O=C1CSC(=S)N1c1ccco1
inactive: [19] > 100 µM | [1] > 100 µM | [2] > 100 µM | [3] > 100 µM | [4] 79.4 µM | [5] 59.3 µM | [6] 39.2 µM | [7] > 100 µM | [8] > 100 µM | [9] > 100 µM | [10] > 100 µM | [11] > 100 µM | [12] 32.6 µM | [15] > 100 µM | [20] 46.7 µM | [16] > 100 µM | [17] > 100 µM | [18] 31.8 µM

COc1cccc(/N=N/C(=N\NC(=O)c2ccc(C)cc2)c2ccc(N(CCC#N)CCC#N)cc2C)c1
inactive: [19] > 100 µM | [1] 25.1 µM | [2] 85.7 µM | [3] 61.1 µM | [4] > 100 µM | [5] > 100 µM | [6] 32.1 µM | [7] > 100 µM | [8] > 100 µM | [9] > 100 µM | [10] > 100 µM | [11] > 100 µM | [14] > 100 µM | [15] 74.5 µM | [20] > 100 µM | [16] > 100 µM | [17] > 100 µM | [18] 63.1 µM

N=C(N)SCCON1C(=O)c2ccccc2C1=O
inactive: [19] > 100 µM | [1] > 100 µM | [2] > 100 µM | [3] > 100 µM | [4] > 100 µM | [5] > 100 µM | [6] > 100 µM | [7] > 100 µM | [8] > 100 µM | [9] > 100 µM | [10] > 100 µM | [11] > 100 µM | [12] > 100 µM | [13] > 100 µM | [15] > 100 µM | [20] > 100 µM | [16] > 100 µM | [17] > 100 µM | [18] > 100 µM

NC(=O)c1ncn2c(=O)n(CCl)nnc12
inactive: [19] > 100 µM | [1] > 100 µM | [2] > 100 µM | [3] 15.4 µM | [4] 50.2 µM | [5] 24.3 µM | [6] 49.3 µM | [7] 72.6 µM | [8] > 100 µM | [9] > 100 µM | [10] > 100 µM | [11] 47.9 µM | [13] 76 µM | [14] > 100 µM | [15] > 100 µM | [20] > 100 µM | [16] > 100 µM | [17] > 100 µM | [18] > 100 µM

Cc1ccc(C)c(N2C(=O)C(=O)c3c(C)ccc(C)c32)c1
inactive: [19] 25.5 µM | [1] 18.8 µM | [2] 22.9 µM | [3] 15.4 µM | [4] 34.9 µM | [6] 23.4 µM | [7] 22 µM | [8] 33.5 µM | [9] 25.7 µM | [10] 23.3 µM | [11] 17.1 µM | [12] 35.6 µM | [13] 16.3 µM | [15] 49.7 µM | [20] 20.6 µM | [16] 57.1 µM | [17] 21 µM | [18] 16.9 µM

CC1=C2C(=O)[C@H]3[C@@H](CC=C4C[C@@H](O)CC[C@@]43C)[C@@H]2CC[C@]12O[C@@H]1C[C@H](C)CN[C@H]1[C@H]2C [JERVINE]
inactive: [19] > 40.8 µM | [1] > 44.5 µM | [2] > 44.1 µM | [4] > 75.5 µM | [5] > 100 µM | [6] > 100 µM | [7] > 61.9 µM | [8] > 49.3 µM | [9] > 43 µM | [10] > 46.6 µM | [11] > 41.3 µM | [12] > 44.2 µM | [13] > 53.7 µM | [14] > 54 µM | [15] > 38.5 µM | [20] > 50.7 µM | [16] > 100 µM | [17] > 42.3 µM | [18] > 100 µM
